Measured values published in PubChem BioAssay AID624383 (Sanford-Burnham Center for Chemical Genomics, 2012).
Calls of active or inactive are those of the source. No rule for the calls is given here.

biological target: Small ubiquitin-related modifier 1 (Homo sapiens) (UniProt P63165); assay: inhibitors of SUMO1 partner interactions, dose response, biochemical, FRET (AID 624383); settings: SUMO1 protein-protein interaction, in vitro
Sequence (P63165 whole entry, looked up): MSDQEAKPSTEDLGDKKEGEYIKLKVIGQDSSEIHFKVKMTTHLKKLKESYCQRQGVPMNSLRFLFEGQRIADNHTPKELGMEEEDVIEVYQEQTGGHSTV

| IC50 | SMILES |
| --- | --- |
| 1.81 µM | C=Cc1c(C)c2cc3[nH]c(cc4nc(cc5nc(cc1[nH]2)C(C)=C5CCC(=O)O)C(CCC(=O)O)=C4C)c(C)c3C=C |
| inactive | C[c-]1[c-](C)[c-](C)[c-](C)[c-]1C.[Fe].c1cc2nccc(N3CCCC3)[c-]2c1 (stereo not drawn) |

| SMILES | IC50 |
| --- | --- |
| CCN(CC)P(=O)(NC(=O)C(Cl)(Cl)Cl)N(CC)CC.[Cl-].[Cl-].[Cl-].[Nd+3] | 0.601 µM |
